This note sets out measurements from patent US8071625B2, “Certain chemical entities, compositions, and methods” (Cytokinetics, Inc., priority 2006, dated 2011).

The assay has as its target T1, crosslinked smooth muscle actomyosin (chicken gizzard smooth muscle myosin subfragment-1 crosslinked to cardiac or skeletal actin) (Gallus gallus, UniProt P10587).
T1 construct: chicken gizzard smooth muscle myosin subfragment-1; from tissue; host or cells: chicken gizzard
The assay can be described thus: Lead optimization pyruvate kinase/horseradish peroxidase/pyruvate oxidase-coupled ATPase assay (compound dose response). In kind it is biochemical. To be noted: read-out: IC50 Arithmetic Mean. The procedure:
Screening assays were performed using a pyruvate kinase and lactate dehydrogenase-coupled ATPase assay containing the following reagents: Potassium PIPES (50 mM), MgCl2 (3 mM), KCl (100 mM), ATP (0.15 mM), DTT (1 mM), BSA (0.1 mg/ml), NADH (0.5 mM), PEP (1.5 mM), pyruvate kinase (4 U/ml), lactate dehydrogenase (8 U/ml), and antifoam (50 ppm) (concentrations expressed are final assay concentrations). The pH was adjusted to 6.80 at 22° C. by addition of potassium hydroxide. Lead optimization assays were performed with a more sensitive pyruvate kinase/horseradish peroxidase/pyruvate oxidase-coupled ATPase assay containing the following reagents: Potassium PIPES (12 mM), MgCl2 (2 mM), KCl (100 mM), ATP (0.15 mM), BSA (0.05 mg/ml), potassium phosphate (2 mM), amplex red (0.1 mM), PEP (0.1 mM), pyruvate kinase (4 U/ml), horseradish peroxidase (0.5 U/ml), pyruvate oxidase (0.5 U/ml), and antifoam (50 ppm) (concentrations expressed are final assay concentrations). The pH was adjusted to 7.00 at 22° C. by addition of potassium hydroxide.
The protein components specific to this assay are chicken gizzard smooth muscle myosin subfragment-1 that has been chemically crosslinked to either cardiac or skeletal actin using an excess of 1-Ethyl-3-[3-dimethylaminopropyl]carbodiimide hydrochloride and N-hydroxysuccinimide. The exact concentration of the crosslinked smooth muscle myosin in the assay is determined empirically, by titration to achieve a desired rate of ATP hydrolysis. The concentration varies between protein preparations due to variations in the fraction of active molecules in each preparation.
Compound dose response assays are performed by first preparing a dilution series of test compound, each with an assay mixture containing potassium PIPES, MgCl2, KCl, ATP, BSA, potassium phosphate, amplex red, PEP, crosslinked smooth muscle actomyosin (subfragment-1), antifoam, and water. The assay is started by adding an equal volume of solution containing potassium Pipes, MgCl2, KCl, BSA, potassium phosphate, pyruvate kinase, horseradish peroxidase, pyruvate oxidase, antifoam, and water. ATP hydrolysis is monitored by measuring the fluorescence of amplex red (excitation at 480 nm, emission at 615 nm). The resulting dose response curve is fit by the 4 parameter equation y=Bottom+((Top-Bottom)/(1+((IC50/X)^Hill))). The IC50 is defined as the concentration at which ATPase activity is midway between the top and bottom of the dose response curve.

Molecules are shown by their SMILES.

For orientation: IC50 means the concentration that inhibits the measured activity by half. Take `CCc1ccc(NC(=O)OCC2(CC(=O)NCc3ccccc3Cl)CCN(C(=O)CN)CC2)cc1` [2-(1-(2-aminoacetyl)-4-{[N-(4-ethylphenyl)carbamoyloxy]methyl}(4-piperidyl))-N-[(2-chlorophenyl)methyl]acetamide]: the IC50 worked out at 3740 nM.
Under `CCc1ccc(NC(=O)OCC(C)(NC(=O)CN)C(=O)NCc2ccccc2Cl)cc1` (stereo not shown) [2-(2-aminoacetylamino)-N-[(2-chlorophenyl)methyl]-3-[N-(4-ethylphenyl)carbamoyloxy]-2-methylpropanamide] stands 3990 nM; under `CCc1ccc(NC(=O)OCCC(NC(=O)CN)C(=O)NCc2ccccc2Cl)cc1` (stereo not shown) [2-(2-aminoacetylamino)-N-[(2-chlorophenyl)methyl]-4-[N-(4-ethylphenyl)carbamoyloxy]butanamide], 4370 nM.
Under `CCc1ccc(NC(=O)OCC(C)(NC(=O)[C@@H](N)CO)C(=O)NCc2ccccc2Cl)cc1` (stereo partly drawn) [2-((2S)-2-amino-3-hydroxypropanoylamino)-N-[(2-chlorophenyl)methyl]-3-[N-(4-ethylphenyl)carbamoyloxy]-2-methylpropanamide] stands 11200 nM.
Under `CCc1ccc(NC(=O)OC[C@H](C)N(CC(=O)O)C(=O)NCc2ccccc2Cl)cc1` [2-(N-{(1S)-2-[N-(4-ethylphenyl)carbamoyloxy]-isopropyl}{[(2-chlorophenyl)methyl]amino}carbonylamino)acetic acid] stands 1670 nM; under `CCc1ccc(NC(=O)OCC(C)(NC(C)=O)C(=O)NCc2ccccc2Cl)cc1` (stereo not shown) [2-(acetylamino)-N-[(2-chlorophenyl)methyl]-3-[N-(4-ethylphenyl)carbamoyloxy]-2-methylpropanamide], 3140 nM; under `CCc1ccc(NC(=O)OCC(NC(C)=O)C(=O)NCc2ccccc2Cl)cc1` (stereo not shown) [2-(acetylamino)-N-[(2-chlorophenyl)methyl]-3-[N-(4-ethylphenyl)carbamoyloxy]propanamide], 13700 nM.
As for `CCc1ccc(NC(=O)OCCN(CCCNC(=O)CNC(=O)OC(C)(C)C)C(=O)NCc2ccccc2Cl)cc1` [2-[(tert-butoxy)carbonylamino]-N-[3-({[(2-chlorophenyl)methyl]amino}-N-{2-[N-(4-ethylphenyl)carbamoyloxy]ethyl}carbonylamino)propyl]acetamide], the IC50 was 4090 nM.
Under `CCc1ccc(NC(=O)OCCN(CCN(C)C(=O)CN)C(=O)NCc2ccccc2Cl)cc1` [2-amino-N-[2-({[(2-chlorophenyl)methyl]amino}-N-{2-[N-(4-ethylphenyl)carbamoyloxy]ethyl}carbonylamino)ethyl]-N-methylacetamide] stands 5860 nM; under `CCc1ccc(NC(=O)OCCN(CCNC(=O)CN)C(=O)NCc2ccccc2Cl)cc1` [2-amino-N-[2-({[(2-chlorophenyl)methyl]amino}-N-{2-[N-(4-ethylphenyl)carbamoyloxy]ethyl}carbonylamino)ethyl]acetamide], 896 nM.
As to `CCc1ccc(NC(=O)OCCN(CCCNC(=O)CN)C(=O)NCc2ccccc2Cl)cc1` [2-amino-N-[3-({[(2-chlorophenyl)methyl]amino}-N-{2-[N-(4-ethylphenyl)carbamoyloxy]ethyl}carbonylamino)propyl]acetamide], the IC50 is 188 nM.
As for `CCc1ccc(NC(=O)OCCN(CCCCNC(=O)CN)C(=O)NCc2ccccc2Cl)cc1` [2-amino-N-[4-({[(2-chlorophenyl)methyl]amino}-N-{2-[N-(4-ethylphenyl)carbamoyloxy]ethyl}carbonylamino)butyl]acetamide], the figure is 223 nM; as for `CCc1ccc(NC(=O)OCCC(N)C(=O)NCc2ccccc2Cl)cc1` (stereo not shown) [2-amino-N-[(2-chlorophenyl)methyl]-4-[N-(4-ethylphenyl)carbamoyloxy]butanamide], 6810 nM.
For the compound `CN(CCN(CCOC(=O)Nc1ccc(C(F)(F)F)cc1)C(=O)NCc1ccccc1Cl)C(=O)CN` [2-amino-N-{2-[{[(2-chlorophenyl)methyl]amino}-N-(2-{N-[4-(trifluoromethyl)phenyl]carbamoyloxy}ethyl)carbonylamino]ethyl}-N-methylacetamide], the IC50 amounted to 15000 nM.
With `CCc1ccc(NC(=O)OCC2(C(=O)NCc3ccccc3Cl)CCN(C(=O)OCCN)CC2)cc1` [2-aminoethyl 4-{N-[(2-chlorophenyl)methyl]carbamoyl}-4-{[N-(4-ethylphenyl)carbamoyloxy]methyl}piperidinecarboxylate], the 50% inhibitory concentration (IC50) was 336 nM.
With `CCc1ccc(NC(=O)OCC(C)(NC(=O)CNC(=O)OC(C)(C)C)C(=O)NCc2ccccc2Cl)cc1` (stereo not shown) [2-{2-[(tert-butoxy)carbonylamino]acetylamino}-N-[(2-chlorophenyl)methyl]-3-[N-(4-ethylphenyl)carbamoyloxy]-2-methylpropanamide], the IC50 is 19400 nM.
Turning to `CCc1ccc(NC(=O)CCC2(C(=O)NCc3ccccc3C)CCN(C(=O)CN)CC2)cc1` [3-(1-(2-aminoacetyl)-4-{N-[(2-methylphenyl)methyl]carbamoyl}(4-piperidyl))-N-(4-ethylphenyl)propanamide], the IC50 amounted to 15300 nM.
Under `CCc1ccc(NC(=O)OCCN(C)C(=O)CCc2ccccc2Cl)cc1` [3-(2-chlorophenyl)-N-{2-[N-(4-ethylphenyl)carbamoyloxy]ethyl}-N-methylpropanamide] stands 875 nM; under `CCc1ccc(NC(=O)OCC2(C(=O)NCc3ccccc3Cl)CCN(C(=O)C(N)CC(=O)O)CC2)cc1` (stereo not shown) [3-amino-4-(4-{N-[(2-chlorophenyl)methyl]carbamoyl}-4-{[N-(4-ethylphenyl)carbamoyloxy]methyl}piperidyl)-4-oxobutanoic acid], 1530 nM.
For `CCc1ccc(NC(=O)OCC(C)(CCNC(=O)CN)C(=O)NCc2ccccc2Cl)cc1` (stereo not shown) [4-(2-aminoacetylamino)-N-[(2-chlorophenyl)methyl]-2-{[N-(4-ethylphenyl)carbamoyloxy]methyl}-2-methylbutanamide], the IC50 was 283 nM.
Under `CCc1ccc(NC(=O)OCC(C)(CCNC(C)=O)C(=O)NCc2ccccc2Cl)cc1` (stereo not shown) [4-(acetylamino)-N-[(2-chlorophenyl)methyl]-2-{[N-(4-ethylphenyl)carbamoyloxy]methyl}-2-methylbutanamide] stands 742 nM; under `CCc1ccc(NC(=O)OCC(C)(CCN)C(=O)NCc2ccccc2Cl)cc1` (stereo not shown) [4-amino-N-[(2-chlorophenyl)methyl]-2-{[N-(4-ethylphenyl)carbamoyloxy]methyl}-2-methylbutanamide], 1740 nM.
Under `CCc1ccc(NC(=O)OCC(C)(CCNC(=O)CNC(=O)OC(C)(C)C)C(=O)NCc2ccccc2Cl)cc1` (stereo not shown) [4-{2-[(tert-butoxy)carbonylamino]acetylamino}-N-[(2-chlorophenyl)methyl]-2-{[N-(4-ethylphenyl)carbamoyloxy]methyl}-2-methylbutanamide] stands 1300 nM; under `NC(=O)c1ccc(NC(=O)OCC2(C(=O)NCc3ccccc3Cl)CCOCC2)cc1` [4-{[(4-{N-[(2-chlorophenyl)methyl]carbamoyl}-2H-3,4,5,6-tetrahydropyran-4-yl)methoxy]carbonylamino}benzamide], 16100 nM.
For `CCc1ccc(NC(=O)OCC2(C(=O)NCc3ccccc3Cl)CCN(C(=O)C(N)CN)CC2)cc1` (stereo not shown) [(1-(2,3-diaminopropanoyl)-4-{[N-(4-ethylphenyl)carbamoyloxy]methyl}(4-piperidyl))-N-[(2-chlorophenyl)methyl]carboxamide], the IC50 was found to be 1020 nM.
Under `CCc1ccc(NC(=O)OCC2(C(=O)NCc3ccccc3Cl)CCN(C(=O)C(O)CO)CC2)cc1` (stereo not shown) [(1-(2,3-dihydroxypropanoyl)-4-{[N-(4-ethylphenyl)carbamoyloxy]methyl}(4-piperidyl))-N-[(2-chlorophenyl)methyl]carboxamide] stands 123 nM; under `CCc1ccc(NC(=O)OCC2(C(=O)NCc3ccccc3Cl)CCN(C(=O)C(N)CCN)CC2)cc1` (stereo not shown) [(1-(2,4-diaminobutanoyl)-4-{[N-(4-ethylphenyl)carbamoyloxy]methyl}(4-piperidyl))-N-[(2-chlorophenyl)methyl]carboxamide], 585 nM.
For the compound `CCc1ccc(NC(=O)OCC2(C(=O)NCc3ccccc3Cl)CCN(C(=O)C(N)CCCN)CC2)cc1` (stereo not shown) [(1-(2,5-diaminopentanoyl)-4-{[N-(4-ethylphenyl)carbamoyloxy]methyl}(4-piperidyl))-N-[(2-chlorophenyl)methyl]carboxamide], the IC50 is 1490 nM.
